This assay concerns the target T1, TNF-α (Homo sapiens, UniProt P01375).
T1 construct: human recombinant TNF-α (PeproTech), intact homotrimer
Briefly: competitive binding by SEC/ultrafiltration with LC-MS; SPD304 displaced and bound sennoside B detected. The following applies: read-out: % inhibition of SPD304 signal (at 3.5 μM). (SEC sorts molecules by how far they enter the pores of the column.)

T1 sequence (P01375 77-233): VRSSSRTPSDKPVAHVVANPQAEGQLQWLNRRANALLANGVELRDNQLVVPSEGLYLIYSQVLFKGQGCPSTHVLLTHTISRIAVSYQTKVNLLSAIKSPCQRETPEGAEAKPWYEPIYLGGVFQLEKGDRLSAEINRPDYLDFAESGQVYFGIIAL

What is called inhibition is the change of the read-out against control, counted positive when it falls. As to `O=C(O)c1cc(O)c2c(c1)[C@@H]([C@H]1c3cc(C(=O)O)cc(O)c3C(=O)c3c(O[C@@H]4O[C@H](CO)[C@@H](O)[C@H](O)[C@H]4O)cccc31)c1cccc(O[C@@H]3O[C@H](CO)[C@@H](O)[C@H](O)[C@H]3O)c1C2=O` [compound 23, sennoside B], the inhibition at 3.5 µM turned out to be 89.4%.

(Values after publication PMC8465676, “A Novel Competitive Binding Screening Assay Reveals Sennoside B as a Potent Natural Product Inhibitor of TNF-α” (Biomedicines, 2021).)
